From paper PMC9916969 (International Journal of Molecular Sciences, 2023)
Read-outs that look alike come from different tables or passages of the source.

Columns and labels:
[1] = Metal chelation by UV-Vis spectroscopy, Zn2+; conditions: ethanol, 25 °C; compound and metal 40 μM; difference spectra; two bands per compound
[2] = molecular target: T1, equine serum BChE (Equus caballus, UniProt P81908); assay: biochemical; conditions: mean ± SEM, n = 3, read-out: Inhibitory activity against BChE, IC50
T1 construct: human erythrocyte AChE, equine serum BChE, and porcine liver CES were used; purchased Sigma-Aldrich; host or cells: equine serum (tissue-derived)
T1 sequence (P81908 whole entry): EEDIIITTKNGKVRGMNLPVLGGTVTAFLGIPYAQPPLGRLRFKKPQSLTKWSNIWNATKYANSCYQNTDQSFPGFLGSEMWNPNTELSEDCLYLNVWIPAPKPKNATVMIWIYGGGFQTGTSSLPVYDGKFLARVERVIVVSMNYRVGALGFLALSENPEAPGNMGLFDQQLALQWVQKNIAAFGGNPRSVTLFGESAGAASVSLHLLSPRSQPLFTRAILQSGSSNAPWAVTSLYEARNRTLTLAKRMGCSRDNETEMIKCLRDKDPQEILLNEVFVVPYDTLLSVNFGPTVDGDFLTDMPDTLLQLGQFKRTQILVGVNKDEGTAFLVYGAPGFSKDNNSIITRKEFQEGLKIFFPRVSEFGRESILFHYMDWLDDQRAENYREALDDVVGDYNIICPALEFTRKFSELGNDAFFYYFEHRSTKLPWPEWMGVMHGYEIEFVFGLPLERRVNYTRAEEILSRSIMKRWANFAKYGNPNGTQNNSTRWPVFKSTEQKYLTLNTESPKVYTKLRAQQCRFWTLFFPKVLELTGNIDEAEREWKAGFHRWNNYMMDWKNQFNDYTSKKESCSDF
In short: (§1)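 Esterase sources were human erythrocyte AChE, equine serum BChE and porcine liver CES, with 4-NPA as CES substrate. Chromophore absorbance read on a plate reader. Compounds screened first at a single 20 µM concentration.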

[3] = molecular target: T2, human erythrocyte AChE (Homo sapiens, UniProt P22303); assay: biochemical; conditions: mean ± SEM, n = 3, read-out: Inhibitory activity against AChE, IC50
T2 construct: human erythrocyte AChE, equine serum BChE, and porcine liver CES were used; purchased Sigma-Aldrich; host or cells: human erythrocytes (tissue-derived)
T2 sequence (P22303 32-617 isoform P22303-2 limits assumed): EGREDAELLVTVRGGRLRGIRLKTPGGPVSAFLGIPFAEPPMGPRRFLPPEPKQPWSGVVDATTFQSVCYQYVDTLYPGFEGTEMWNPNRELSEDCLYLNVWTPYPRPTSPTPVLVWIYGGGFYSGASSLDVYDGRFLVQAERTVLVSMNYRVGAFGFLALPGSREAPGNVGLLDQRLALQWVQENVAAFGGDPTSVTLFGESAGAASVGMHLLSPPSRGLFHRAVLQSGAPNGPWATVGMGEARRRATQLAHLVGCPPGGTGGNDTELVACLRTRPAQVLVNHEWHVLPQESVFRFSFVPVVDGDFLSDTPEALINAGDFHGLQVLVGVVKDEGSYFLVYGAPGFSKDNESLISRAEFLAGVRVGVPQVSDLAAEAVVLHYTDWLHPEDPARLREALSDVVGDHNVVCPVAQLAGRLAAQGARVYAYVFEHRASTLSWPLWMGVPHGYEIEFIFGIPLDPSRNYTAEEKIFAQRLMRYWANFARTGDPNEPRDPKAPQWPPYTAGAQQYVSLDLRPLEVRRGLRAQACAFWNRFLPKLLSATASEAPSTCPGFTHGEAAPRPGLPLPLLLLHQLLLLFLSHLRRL
In short: as §1

[4] = in vitro; format: cell-based; conditions: mouse
Protocol: […]. Accordingly, in the present work, we paid special attention to the study of the cytotoxic activity of compounds on primary cultures of mouse hepatocytes using standard MTT methodology.
The cytotoxicity of the compounds was evaluated using a primary culture of mouse hepatocytes isolated at the Center for Biotechnology and Bioengineering, Ural Federal University, Ekaterinburg, Russia, according to the standard method. Cells were seeded in 96-well plates in the inoculum dose of 1 × 10^4 cells/mL and cultured for 24 h in Dulbecco’s Modified Eagle Medium (DMEM), with 1% (w/v) glutamine in the presence of 10% (v/v) fetal bovine serum and gentamicin (50 mg/L) at 37 °C, with a humidified atmosphere of 5% (v/v) CO2. Cell viability was assessed using the standard MTT assay. The compounds were dissolved in DMSO and then in a nutrient medium, after which they were added to the wells with cells at final concentrations of 10^−7, 10^−6, 10^−5, and 10^−4 M. Hepatocytes were exposed to test compounds for 24 h at 37 °C, 95% relative humidity and 5% (v/v) CO2 atmosphere. After incubation, the medium was replaced with 100 μL of fresh medium containing MTT (0.5 mg/mL). The plates were then incubated at 37°C in a CO2 incubator for 2 h. Then the medium with MTT was removed and DMSO was added to dissolve the formazan crystals.
The results of the MTT assay were evaluated on a Tecan Infinite M200 PRO (Tecan Austria GmbH, Grödig, Austria) plate spectrophotometer at 570 nm by comparing the optical density of a formazan solution in the assay and control wells. The cell viability was expressed as the percentage of untreated control. The results were obtained from three independent experiments performed in six replicates. The IC50 (μM) values were calculated by the AAT Bioquest-calculator: (https://www.aatbio.com/tools/ic50-calculator, accessed on 1 December 2022) and expressed as a mean ± standard error of the mean (SEM). Statistical analysis was carried out using Microsoft Excel 2007 (Microsoft Corporation, Redmond, WA, USA) and Statistica 2009 (Tulsa, OK, USA) programs.

[5] = FRAP assay; conditions: Trolox equivalents; 60 min, 37 °C; n.a. = not active
[6] = Metal chelation by UV-Vis spectroscopy, Cu2+; conditions: ethanol, 25 °C; compound and metal 40 μM; difference spectra; two bands per compound
[7] = molecular target: T3, eqBChE (Equus caballus, UniProt P81908); assay: Kinetic study of BChE inhibition (Lineweaver-Burk); format: biochemical; conditions: for αKi (non-competitive inhibition constant), eqBChE: mixed-type inhibition, mean ± SEM; for Ki: read-out: Ki (competitive inhibition constant), eqBChE
T3 construct: human erythrocyte AChE, equine serum BChE, and porcine liver CES were used; purchased Sigma-Aldrich; host or cells: equine serum (tissue-derived)
T3 sequence (P81908 whole entry): as the sequence (P81908 whole entry) above
Protocol: Similar results were obtained for other tested compounds (Figures S61 and S62). The obtained values of inhibition constants (Ki = competitive component and αKi = non-competitive component) are shown in Table 2.
(§2) We assessed the mechanisms of AChE and BChE inhibition by performing a thorough analysis of enzyme kinetics. After a 5 min incubation at 25 °C (for temperature equilibration) with three increasing concentrations of inhibitor and six decreasing substrate concentrations, the residual enzyme activity was measured as described above for enzymatic assays.

[8] = molecular target: T4, AChE (Homo sapiens, UniProt P22303); assay: Kinetic study of AChE inhibition (Lineweaver-Burk); format: biochemical; conditions: for αKi (non-competitive inhibition constant), AChE: mixed-type inhibition, mean ± SEM; for Ki: read-out: Ki (competitive inhibition constant), AChE
T4 construct: human erythrocyte AChE, equine serum BChE, and porcine liver CES were used; purchased Sigma-Aldrich; host or cells: human erythrocytes (tissue-derived)
T4 sequence (P22303 32-617 isoform P22303-2 limits assumed): as the sequence (P22303 32-617 isoform P22303-2 limits assumed) above
Protocol: as §2

[9] = ethanol, difference spectra, two bands, cited from earlier work
[10] = ethanol, difference spectra, two bands, cited from earlier work; remark: listed apart in the source
[11] = ethanol, difference spectra, two bands, cited from earlier work; remark: listed apart in the source
[12] = absorption band at 337, 323, 308 nm

| Compound | Shift of Absorbance, Zn(II) [1] | IC50 [2] | IC50 [3] | IC50 at 24 h [4] | FRAP, TE [5] | Shift of Absorbance, Cu(II) [6] | Type of BChE inhibition ([7]; Lineweaver–Burk analysis) | αKi (non-competitive inhibition constant), eqBChE [7] | Ki [7] | Type of AChE inhibition ([8]; Lineweaver–Burk analysis) | αKi (non-competitive inhibition constant), AChE [8] | Ki [8] | Shift of Absorbance, Cu(II) ([9]; absorption band at 237 nm) | Shift of Absorbance, Cu(II) [9, 12] | Shift of Absorbance, Fe(II) ([10]; absorption band at 237 nm) | Shift of Absorbance, Fe(II) [10, 12] | Shift of Absorbance, Zn(II) ([11]; absorption band at 237 nm) | Shift of Absorbance, Zn(II) [11, 12] |
| --- | --- | --- | --- | --- | --- | --- | --- | --- | --- | --- | --- | --- | --- | --- | --- | --- | --- | --- |
| O=C(NCCCCCCNc1c2c(nc3ccccc13)CCCC2)c1cc(F)c(F)cc1O [7b] | 352 nm | 31.7 ± 3 nM | 249 ± 17 nM | 15.16 ± 0.09 µM | 0.03 | 253 nm | – | – | – | – | – | – | – | – | – | – | – | – |
| Oc1ccccc1/C=N/CCCCCCCCNc1c2c(nc3ccccc13)CCCC2 [10c] | – | 15.6 ± 1.2 nM | 82.6 ± 4.6 nM | 5.87 ± 0.14 µM | – | – | mixed type of inhibition | 0.0152 ± 0.0009 µM | 8.4 ± 0.6 nM | mixed type of inhibition | 0.0644 ± 0.0040 µM | 29.9 ± 2.1 nM | – | – | – | – | – | – |
| O=C(NCCCCCCCCNc1c2c(nc3ccccc13)CCCC2)c1cc(F)c(F)cc1O [7c] | – | 22.6 ± 1.8 nM | 188 ± 15 nM | – | 0.06 | – | – | 0.0243 ± 0.0001 µM | 17.3 ± 0.6 nM | – | 0.134 ± 0.009 µM | 125 ± 3 nM | – | – | – | – | – | – |
| O=C(NCCCCCCNc1c2c(nc3ccccc13)CCCC2)c1ccccc1O [5b] | – | 11.9 ± 0.1 nM | 294 ± 8 nM | 4.89 ± 0.08 µM | – | – | – | – | – | – | – | – | 254 nm | 352 nm | 254 nm | 351 nm | 254 nm | 351 nm |
